In publication PMC5796027, “Thiopurine Drugs Repositioned as Tyrosinase Inhibitors” (International Journal of Molecular Sciences, 2017):
Entries after “also recorded” stand apart in the source; their conditions may differ.

Tests used:
mushroom tyrosinase [1] = molecular target: T1, mushroom tyrosinase (Agaricus bisporus, UniProt C7FF04); experiment: Mushroom tyrosinase enzyme inhibition assay (dopachrome absorbance at 475 nm); type: biochemical; conditions: for inhibition of mushroom tyrosinase (in words): enzyme assay with 0.01% Triton X-100; for LE, ligand efficiency: −1.37 × (Log10Ki)/HA, HA = number of heavy atoms
Method: (§1) Enzyme activity and kinetics experiments with inhibitors—All of the reagents used in this study were purchased from ChemBridge (San Diego, CA, USA), Sigma-Aldrich (St. Louis, MO, USA), or Tokyo Chemical Industry (Tokyo, Japan). The reaction solution for the enzyme assay was prepared with 200 nM mushroom tyrosinase and inhibitors in phosphate-buffered saline (PBS), containing 5% dimethyl sulphoxide and 0.01% (w/v) Triton X-100. After incubating the mixture at 30 °C for 10 min, 500 μM L-tyrosine was added as the substrate. […] The IC50 was evaluated by analysing different concentrations of each inhibitor. The inhibitory constants (Ki) were converted from the IC50 values using the Km obtained from kinetics experiments and substrate concentration based on the Cheng–Prusoff equation [60]. A series of substrates at concentrations of 0.25, 0.33, 0.4, 0.5, 0.67, and 1 mM were used to obtain the respective velocities (V) for enzyme inhibitory kinetics. The concentrations of each inhibitor were varied and comprised the range that included the IC50 value. Four models (competitive, uncompetitive, non-competitive, and mixed) that were derived from the Michaelis-Menten equation were used to fit the kinetic parameters, maximum velocity (Vmax), Michaelis constant (Km), and the dissociation constants between the substrate-free enzyme and inhibitor (Kic) and the substrate-bound enzyme and inhibitor (Kiu). The data from all the concentrations of the substrate and inhibitor were simultaneously fitted nonlinearly by minimising the χ^2 value, defined as the sum of the squared deviations between experimental and fitted values for each model. The appropriate model was selected based on the F-test with χ^2 values from the four models, coupled with the extraction of the related parameters. All of the fittings and statistical analyses in this study were computed by using MATLAB® (MathWorks, Natick, MA, USA).
Target sequence in this assay (C7FF04 1-392): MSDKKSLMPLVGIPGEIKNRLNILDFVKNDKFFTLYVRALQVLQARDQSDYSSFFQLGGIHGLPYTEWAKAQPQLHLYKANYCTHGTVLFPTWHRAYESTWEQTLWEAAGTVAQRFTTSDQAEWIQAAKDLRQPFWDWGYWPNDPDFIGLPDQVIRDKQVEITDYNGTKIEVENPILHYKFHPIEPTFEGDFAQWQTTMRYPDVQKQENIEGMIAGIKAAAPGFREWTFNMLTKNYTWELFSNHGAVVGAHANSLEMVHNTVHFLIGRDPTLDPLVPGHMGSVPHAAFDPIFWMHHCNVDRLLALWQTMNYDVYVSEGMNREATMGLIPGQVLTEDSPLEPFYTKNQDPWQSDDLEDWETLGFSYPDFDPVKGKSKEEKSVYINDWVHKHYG

[2] = design: method as in PMID 22587354, PMID 18551414, PMID 15667143; conditions: extracted from the ZINC database ref 33,34,35; cited from earlier work
melanin contents = system: melanin contents; design: method as in PMID 23123645, PMID 23411395, PMID 22901670; conditions: higher concentrations (>100 μM) ref 44,45,46; cited from earlier work
[3] = system: B16F10 murine melanoma cells; experiment: Melanin content assay in B16F10 cells; type: cell-based; conditions: 10, 20 and 50 μM tested, 48 h
Method: (§2) Cell-based activity assays with inhibitors—The melanin content and MTT conversion were measured in B16F10 murine melanoma cells that were purchased from the Korean Cell Line Bank (Seoul, Korea). When the density of B16F10 cells reached 1 × 10^5 cells, the test inhibitors (10, 20, and 50 μM) and 3-isobutyl-1-methylxanthine (IBMX, 100 μM) were added, and the cells were incubated for 48 h. The amount of melanin released into the extracellular area was quantified by measuring the absorbance at 405 nm, and was subsequently expressed as a percentage relative to the untreated control. The change in the reduction of the MTT dye into formazan in the cell was quantitatively interpreted as the cellular toxicity induced by the inhibitor. The inhibition of tyrosinase was also estimated using the B16F10 cell lysates, as described previously [28]. In brief, the cells were lysed in PBS supplemented with 1% (w/v) Triton X-100, centrifuged at 14,000 g for 30 min, and then the supernatants were dialysed to remove Triton X-100. After adding 500 μM L-DOPA and the inhibitors (10, 20, and 50 μM) to the prepared lysates, the change in absorbance over time at 475 nm was measured. The decrease in absorbance was calculated relative to the absorbance of the untreated controls.

mushroom tyrosinase [4] = molecular target: T1, mushroom tyrosinase; experiment: Differential scanning fluorimetry (DSF); type: binding; conditions: 0.5 μM protein, 200 μM inhibitor, control without inhibitor 51.8 °C
Method: DSF—The stability of mushroom tyrosinase in the presence and absence of inhibitors was assessed using DSF using a […] (RT-PCR) CFX96 system (BioRad, Hercules, CA, USA). […] The Tm value, which is the mid-point melting temperature, was calculated from a nonlinear fit of the temperature-dependent fluorescent intensity I(T), expressed as the Boltzmann equation: I(T)=LL+UL−LL/1+exp(Tm−T/a), where UL and LL are related to the baseline and top of the curves, respectively, and a is the steepness of the slope. Only data in the range of 35–65 °C were used for the fitting.
Target sequence in this assay (C7FF04 1-392 limits assumed): as the sequence (C7FF04 1-392) above

mushroom tyrosinase [5] = molecular target: T1, mushroom tyrosinase; experiment: Enzyme inhibitory kinetics with nonlinear fitting of Michaelis-Menten models; type: biochemical; conditions: for Mechanism of inhibition: model chosen by χ2 and F-test among competitive, uncompetitive, non-competitive, mixed; for Ki: nonlinear data fitting, competitive model, read-out: kinetically fitted Ki
Method: as §1
Target sequence in this assay (C7FF04 1-392): as above

mammalian tyrosinase = molecular target: T2, mammalian tyrosinase (Mus musculus, UniProt P11344); experiment: Tyrosinase inhibition in B16F10 cell lysates (L-DOPA substrate); type: biochemical, murine; conditions: 10, 20, 50 μM inhibitor, 500 μM L-DOPA
T2 construct: we performed an enzymatic assay with melanoma B16F10 cell lysates; endogenous in cells; host or cells: B16F10 murine melanoma cells (Korean Cell Line Bank), Triton X-100 lysate, dialysed supernatant
T2 sequence (P11344 19-533): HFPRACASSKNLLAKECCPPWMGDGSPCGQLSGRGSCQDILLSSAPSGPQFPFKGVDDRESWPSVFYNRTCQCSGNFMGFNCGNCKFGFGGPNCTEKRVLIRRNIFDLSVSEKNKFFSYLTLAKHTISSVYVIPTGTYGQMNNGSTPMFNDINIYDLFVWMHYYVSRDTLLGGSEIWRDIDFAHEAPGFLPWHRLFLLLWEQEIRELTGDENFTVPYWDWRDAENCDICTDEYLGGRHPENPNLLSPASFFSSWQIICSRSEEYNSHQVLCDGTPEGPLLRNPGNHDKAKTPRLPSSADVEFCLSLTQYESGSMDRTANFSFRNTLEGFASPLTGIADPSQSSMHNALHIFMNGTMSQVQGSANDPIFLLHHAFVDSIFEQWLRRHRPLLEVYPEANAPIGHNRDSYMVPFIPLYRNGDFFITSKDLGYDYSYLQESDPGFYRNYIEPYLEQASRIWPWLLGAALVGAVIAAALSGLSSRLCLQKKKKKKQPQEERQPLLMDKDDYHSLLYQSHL
Method: as §2

human hepatocytes = conditions: up to several tens of μM ref 43; cited from earlier work
tyrosinase = conditions: cited from earlier work; for reported inhibition of tyrosinase through direct binding: literature survey ref 36,37

Structure (SMILES): NC(CC(=O)O)C(=O)O (racemic) [D,L-aspartic acid]
- inhibition of mushroom tyrosinase (in words) (mushroom tyrosinase [1]): only thioguanine exerted inhibitory action

Structure (SMILES): Cn1cnc([N+](=O)[O-])c1Sc1ncnc2nc[nH]c12 [Azathioprine, azathioprine]
- Ki (mushroom tyrosinase [1]): > 1000 µM
- inhibition of mushroom tyrosinase (in words) (mushroom tyrosinase [1]): but not azathioprine, exerted an inhibitory activity; also recorded: poor inhibitor
- LogP [2]: 1.15

Structure (SMILES): Nc1nc2nc[nH]c2c(=O)[nH]1 [Guanine, guanine]
- Ki (mushroom tyrosinase [1]): > 1000 µM
- inhibition of mushroom tyrosinase (in words) (mushroom tyrosinase [1]): only thioinosine inhibited tyrosinase
- LogP [2]: −0.77

Structure (SMILES): O=c1[nH]cnc2nc[nH]c12 [Hypoxanthine, hypoxanthine]
- Ki (mushroom tyrosinase [1]): > 1000 µM
- inhibition of mushroom tyrosinase (in words) (mushroom tyrosinase [1]): only thioinosine inhibited tyrosinase
- LogP [2]: −0.35

Structure (SMILES): O=c1cc(CO)occ1O [Kojic acid, kojic acid]
- decrease of melanin contents (melanin contents): meaningful decreases
- LogP [2]: −0.16
- reduction of melanin content (in words) [3]: marginal

Structure (SMILES): Sc1ncnc2nc[nH]c12 [Mercaptopurine, mercaptopurine]
- Tm of tyrosinase in complex with inhibitor (mushroom tyrosinase [4]): 49.0 ± 0.2 °C
- Tm of tyrosinase in complex with inhibitor (mushroom tyrosinase [4]; listed as mercaptopurine): 49.0 °C
- Ki (mushroom tyrosinase [1]; read-out: Ki): 16 µM
- LE, ligand efficiency (mushroom tyrosinase [1]): 0.61
- Mechanism of inhibition (mushroom tyrosinase [5]): Competitive
- Mechanism of inhibition (mushroom tyrosinase [5]; listed as mercaptopurine): competitive inhibitors
- Ki (mushroom tyrosinase [5]): 29 µM
- inhibition of tyrosinase in B16F10 cell lysates (in words) (mammalian tyrosinase): highest inhibition
- inhibition of tyrosinase in B16F10 cell lysates (in words) (mammalian tyrosinase; listed as mercaptopurine): inhibited melanin syntheses in a concentration-dependent manner
- LogP [2]: 1.00
- cytotoxicity in human hepatocytes (human hepatocytes): less cytotoxic up to several tens of μM
- reduction of melanin content (in words) [3]: less effective

Structure (SMILES): N[C@@H](CSCC(=O)O)C(=O)O [S-carboxymethyl-L-cysteine]
- inhibition of mushroom tyrosinase (in words) (mushroom tyrosinase [1]): only thioguanine exerted inhibitory action

Structure (SMILES): Nc1nc2nc[nH]c2c(=S)[nH]1 [Thioguanine, thioguanine]
- Tm of tyrosinase in complex with inhibitor (mushroom tyrosinase [4]): 49.8 ± 0.2 °C
- Tm of tyrosinase in complex with inhibitor (mushroom tyrosinase [4]; listed as thioguanine): 49.8 °C
- inhibition of mushroom tyrosinase (in words) (mushroom tyrosinase [1]): only thioguanine exerted inhibitory action
- Ki (mushroom tyrosinase [1]; read-out: Ki): 52 µM
- Mechanism of inhibition (mushroom tyrosinase [5]): Competitive
- Mechanism of inhibition (mushroom tyrosinase [5]; listed as thioguanine): competitive inhibitors
- Ki (mushroom tyrosinase [5]): 40 µM
- inhibition of tyrosinase in B16F10 cell lysates (in words) (mammalian tyrosinase): inhibited melanin syntheses in a concentration-dependent manner
- LogP [2]: 0.60
- reduction of melanin content (in words) [3]: markedly reduced the melanin content at 20 and 50 μM

Structure (SMILES): OC[C@H]1O[C@@H](n2cnc3c(S)ncnc32)[C@H](O)[C@@H]1O [Thioinosine, thioinosine]
- Tm of tyrosinase in complex with inhibitor (mushroom tyrosinase [4]): 51.0 ± 0.2 °C
- Tm of tyrosinase in complex with inhibitor (mushroom tyrosinase [4]; listed as thioinosine): 51.0 °C
- Ki (mushroom tyrosinase [1]; read-out: Ki): 8 µM
- LE, ligand efficiency (mushroom tyrosinase [1]): 0.34
- Mechanism of inhibition (mushroom tyrosinase [5]): Competitive
- Mechanism of inhibition (mushroom tyrosinase [5]; listed as thioinosine): competitive inhibitors
- Ki (mushroom tyrosinase [5]): 14 µM
- inhibition of tyrosinase in B16F10 cell lysates (in words) (mammalian tyrosinase): inhibited melanin syntheses in a concentration-dependent manner
- LogP [2]: −0.90
- reduction of melanin content (in words) [3]: markedly reduced the melanin content at 20 and 50 μM

Structure (SMILES): Nn1c(S)nnc1-c1ccncc1 [ZINC509439, 4-amino-5-(4-pyridyl)-4H-1,2,4-triazole-3-thiol]
- Ki (tyrosinase; BindingDB entry ref 48, read-out: reported Ki): 1 µM

Structure (SMILES): O=Cc1ccc(O[C@@H]2O[C@H](CO)[C@@H](O)[C@@H](O)[C@H]2O)cc1 [ZINC5234422, 4-(β-D-allopyranosyloxy)benzaldehyde]
- IC50 (tyrosinase; BindingDB entry ref 48, read-out: half-maximal inhibitory concentration (IC50)): 94 µM

Structure (SMILES): Nc1ccc(C(=O)NCC(=O)O)cc1 [aminohippuric acid]
- reported inhibition of tyrosinase through direct binding (tyrosinase): has been reported

Structure (SMILES): O=C(O)c1cc(-c2ccc(F)cc2F)ccc1O [diflunisal]
- reported inhibition of tyrosinase through direct binding (tyrosinase): has been reported

Structure (SMILES): O=C(O)c1cccnc1Nc1cccc(C(F)(F)F)c1 [nifumic acid]
- inhibition of mushroom tyrosinase (in words) (mushroom tyrosinase [1]): only thioguanine exerted inhibitory action

Structure (SMILES): CCCN(CCC)S(=O)(=O)c1ccc(C(=O)O)cc1 [probenecid]
- inhibition of mushroom tyrosinase (in words) (mushroom tyrosinase [1]): only thioguanine exerted inhibitory action

Structure (SMILES): COc1ccc(/C=C/C(=O)Nc2ccccc2C(=O)O)cc1OC [tranilast]
- inhibition of mushroom tyrosinase (in words) (mushroom tyrosinase [1]): only thioguanine exerted inhibitory action
